Source: patent US12012388B1, “4-chloro-n'-(2-(5-(4-chlorophenyl)-1,3,4-oxadiazol-2-ylthio)acetoxy)benzimidamide as an antimicrobial compound” (KING FAISAL UNIVERSITY, priority 2023, dated 2024)

Tests used:
Format in all cases: cell-based
Escherichia coli = assay: Agar plate disc-diffusion, antibacterial activity (inhibition zone); details: nutrient agar, 37° C., 48 h, DMSO zone subtracted
Protocol: (§1) The agar plate disc-diffusion method was applied. Sterilized filter papers (6 mm in diameter) were wetted with 10 μL of a solution of 4-chloro-N′-(2-(5-(4-chlorophenyl)-1,3,4-oxadiazol-2-ylthio)acetoxy)benzimidamide (3) to be tested, containing 10 mg/mL in DMSO, and the discs were allowed to air dry. The discs were then placed onto the surface of agar plates (nutrient agar for bacteria and Sabouraud's dextrose agar for fungi) seeded with the test organism. Each plate contained 15 mL of the agar medium, previously seeded with 0.2 mL of the broth culture of each organism pregrown for 18 hours. The plates were incubated at 37° C. for 48 h, and 72 h for fungi. The inhibition zones were measured in mm. Discs impregnated with DMSO were used as a control, and its inhibition zone was subtracted from the tested compound actual inhibition zone.
(§2) The results of the antimicrobial testing can be observed in Tables 1 and 2, below, using ciprofloxacin as a reference.

Pseudomonas aeruginosa = assay: as above; details: nutrient agar, 37° C., 48 h, DMSO zone subtracted
Protocol: as §1, §2

Staphylococcus aureus = assay: as above; details: nutrient agar, 37° C., 48 h, DMSO zone subtracted
Protocol: as §1, §2

Bacillus Cereus = assay: as above; details: nutrient agar, 37° C., 48 h, DMSO zone subtracted
Protocol: as §1, §2

[1] = test system: Chrysosporium keratinophilum; assay: Agar plate disc-diffusion, antifungal activity (inhibition zone); details: Sabouraud's dextrose agar, 37° C., 72 h, DMSO zone subtracted
Protocol: as §1, §2

Aspergillus flavus = assay: as above; details: Sabouraud's dextrose agar, 37° C., 72 h, DMSO zone subtracted
Protocol: as §1, §2

[2] = A = concentration of comp. = 10,000 μL
[3] = B = concentration of comp. = 30.000 μL
[4] = C = concentration of comp. = 50,000 μL

N/C(=N\OC(=O)CSc1nnc(-c2ccc(Cl)cc2)o1)c1ccc(Cl)cc1 [Compound 3, 4-chloro-N′-(2-(5-(4-chlorophenyl)-1,3,4-oxadiazol-2-ylthio)acetoxy)benzimidamide]
inhibition zone, Escherichia coli, A (Escherichia coli; [2]): 27 mm
inhibition zone, Escherichia coli, B (Escherichia coli; [3]): 34 mm
inhibition zone, Escherichia coli, C (Escherichia coli; [4]): 41 mm
inhibition zone, Pseudomonas aeruginosa, A (Pseudomonas aeruginosa; [2]): 21 mm
inhibition zone, Pseudomonas aeruginosa, B (Pseudomonas aeruginosa; [3]): 24 mm
inhibition zone, Pseudomonas aeruginosa, C (Pseudomonas aeruginosa; [4]): 36 mm
inhibition zone, Staphylococcus aureus, A (Staphylococcus aureus; [2]): 19 mm
inhibition zone, Staphylococcus aureus, B (Staphylococcus aureus; [3]): 24 mm
inhibition zone, Staphylococcus aureus, C (Staphylococcus aureus; [4]): 37 mm
inhibition zone, Bacillus Cereus, A (Bacillus Cereus; [2]): 20 mm
inhibition zone, Bacillus Cereus, B (Bacillus Cereus; [3]): 26 mm
inhibition zone, Bacillus Cereus, C (Bacillus Cereus; [4]): 39 mm
inhibition zone, Chrysosporium keratinophilum, A [1, 2]: 25 mm
inhibition zone, Chrysosporium keratinophilum, B [1, 3]: 27 mm
inhibition zone, Chrysosporium keratinophilum, C [1, 4]: 40 mm
inhibition zone, Aspergillus flavus, A (Aspergillus flavus; [2]): 24 mm
inhibition zone, Aspergillus flavus, B (Aspergillus flavus; [3]): 26 mm
inhibition zone, Aspergillus flavus, C (Aspergillus flavus; [4]): 35 mm
